In the assay the target is T1, F508delCFTR (Homo sapiens, UniProt P13569, DEL508-508).
T1 construct: expressed in transfected cells; host or cells: CFBE41o- (CFBE41o-F508delCFTR-HRP), doxycycline-inducible
Kind of assay: Cell Surface Expression-Horse Radish Peroxidase (CSE-HRP) assay. The assay is classed as cell-based. To be noted: CFBE41o-F508delCFTR-HRP cells; for EC50: cell surface expression, luminescence readout, 18-24 hours at 33° C., highest concentration tested 20 μM, 8-point curve; for Maximum % activity: maximum at any tested concentration, normalized to on-plate positive control (3 μM) and DMSO. An excerpt: Cell Surface Expression-Horse Radish Peroxidase (CSE-HRP) Assay:
A cellular assay for measuring the F508delCFTR cell surface expression after correction with test compounds was developed in human lung derived epithelial cell line (CFBE41o-) (Veit G et al, (2012) Mol Biol Cell. 23(21): 4188-4202). This was achieved by expressing the F508delCFTR mutation along with a horseradish peroxidase (HRP) in the fourth exofacial loop and then measuring the HRP activity using luminescence readout from these cells, CFBE41o-F508delCFTR-HRP, that were incubated overnight with the test corrector compounds. Briefly, for this primary assay, the CFBE41o-F508delCFTR-HRP cells were plated in 384-well plates (Greiner Bio-one; Cat 781080) at 4,000 cells/well along with 0.5 μg/mL doxycycline to induce the F508delCFTR-HRP expression and further incubated at 37° C., 5% CO2 for 72 hours. The test compounds were then added at the required concentrations and further incubated for 18-24 hours at 33° C. The highest concentration tested was 20 μM with an 8-point concentration response curve using a 3-fold dilution. Three replicate plates were run to determine one EC50. All plates contained negative controls (dimethyl sulfoxide, DMSO) and positive controls (3 μM of 3-[(2R,4R)-4-({[1-(2,2-difluoro-1,3-benzodioxol-5-yl)cyclopropyl]carbonyl}amino)-7-methoxy-3,4-dihydro-2H-chromen-2-yl]benzoic acid) as well as on-plate concentration response of the positive control. Post incubation, the plates were washed 5× times with Dulbecco's phosphate buffered saline (DPBS), followed by the addition of the HRP substrate, luminol (50 μL), and measuring the HRP activity using luminescence readout on EnVision® Multilabel Plate Reader (Perkin Elmer; product number 2104-0010). The raw counts from the experiment are analyzed using Accelrys® Assay Explorer v3.3.
Z′ greater than 0.5 was used as passing quality control criteria for the plates.
The Z′ is defined as: 1−[3*SDPositive Control+3*SDNegative Control/Absolute(MeanPositive Control−MeanNegative Control)],
wherein “SD” is standard deviation.
The % activity measured at each of the 8 test concentrations of the test compound was normalized to the on-plate positive control using the following formula: % activity=[(test compound response−DMSO response)/(positive control response−DMSO response)]*100
The maximum % activity achieved for the test compound at any tested concentration is presented in Table 1 along with the EC50 calculated using the following general sigmoidal curve with variable Hill slope equation (described as Model 42 in the Accelrys® Assay Explorer v3.3 software): y=(a−d)/(1+(x/c)^b)+d General sigmoidal curve with concentration, response, top, bottom, EC50 and Hill slope.
This model describes a sigmoidal curve with an adjustable baseline, a. The equation can be used to fit curves where response is either increasing or decreasing with respect to the independent variable, “x”.
“x” is a concentration of drug under test.
“a” is the maximum response, and “d” is the minimum response
“c” is the inflection point (EC50) for the curve. That is, “y” is halfway between the lower and upper asymptotes when x=c.
“b” is the slope-factor or Hill coefficient. The sign of b is positive when the response increases with increasing dose and is negative when the response decreases with increasing dose (inhibition).

T1 sequence (P13569 with tags, fused parts or gaps DEL508-508): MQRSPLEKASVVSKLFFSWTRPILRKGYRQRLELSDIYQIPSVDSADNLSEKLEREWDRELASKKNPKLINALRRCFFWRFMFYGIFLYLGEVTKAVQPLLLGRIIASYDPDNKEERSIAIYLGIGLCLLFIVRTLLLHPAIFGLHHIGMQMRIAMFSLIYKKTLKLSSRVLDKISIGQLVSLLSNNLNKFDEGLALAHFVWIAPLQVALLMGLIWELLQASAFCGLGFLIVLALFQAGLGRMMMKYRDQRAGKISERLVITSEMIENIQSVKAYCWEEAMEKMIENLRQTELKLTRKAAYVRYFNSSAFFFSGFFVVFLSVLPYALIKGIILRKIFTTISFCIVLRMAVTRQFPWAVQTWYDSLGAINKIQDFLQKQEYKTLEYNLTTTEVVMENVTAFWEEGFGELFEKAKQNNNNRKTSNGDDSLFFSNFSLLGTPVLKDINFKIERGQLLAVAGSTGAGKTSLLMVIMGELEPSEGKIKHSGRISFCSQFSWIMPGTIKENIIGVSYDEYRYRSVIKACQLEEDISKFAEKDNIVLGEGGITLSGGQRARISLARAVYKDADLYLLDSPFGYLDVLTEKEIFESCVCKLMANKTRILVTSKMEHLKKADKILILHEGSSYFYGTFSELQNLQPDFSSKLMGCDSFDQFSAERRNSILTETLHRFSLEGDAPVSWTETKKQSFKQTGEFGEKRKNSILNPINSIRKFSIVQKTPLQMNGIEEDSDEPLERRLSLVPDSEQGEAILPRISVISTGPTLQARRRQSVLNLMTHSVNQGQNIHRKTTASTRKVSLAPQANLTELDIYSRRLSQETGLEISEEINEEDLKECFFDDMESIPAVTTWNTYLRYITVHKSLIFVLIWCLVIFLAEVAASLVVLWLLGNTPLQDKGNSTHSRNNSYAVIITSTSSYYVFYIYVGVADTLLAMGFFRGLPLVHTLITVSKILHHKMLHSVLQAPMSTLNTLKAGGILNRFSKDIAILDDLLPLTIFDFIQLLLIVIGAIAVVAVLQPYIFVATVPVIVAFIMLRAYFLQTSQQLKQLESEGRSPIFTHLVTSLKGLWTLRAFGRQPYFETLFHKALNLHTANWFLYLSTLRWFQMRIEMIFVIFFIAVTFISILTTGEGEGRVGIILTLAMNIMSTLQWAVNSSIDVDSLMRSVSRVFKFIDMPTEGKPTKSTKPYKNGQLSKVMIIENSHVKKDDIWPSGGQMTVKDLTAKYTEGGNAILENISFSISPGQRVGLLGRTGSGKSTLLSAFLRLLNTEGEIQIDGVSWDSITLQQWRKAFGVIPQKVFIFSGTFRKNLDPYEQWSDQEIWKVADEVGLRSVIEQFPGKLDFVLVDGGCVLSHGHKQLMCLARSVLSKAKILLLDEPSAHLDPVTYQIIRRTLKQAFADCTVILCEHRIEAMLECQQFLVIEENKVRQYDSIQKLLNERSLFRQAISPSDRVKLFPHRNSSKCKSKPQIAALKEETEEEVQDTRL

With `COC(=O)c1ccc([C@@H]2C[C@H](NC(=O)C3(c4ccc5c(c4)OC(F)(F)O5)CC3)CCO2)cc1` [Example 28, methyl 4-[(2S,4R)-4-({[1-(2,2-difluoro-1,3-benzodioxol-5-yl)cyclopropyl]carbonyl}amino)tetrahydro-2H-pyran-2-yl]benzoate], the EC50 amounted to 3310 nM and the Maximum % activity was found to be 73%.

In the case of `O=C(N[C@H]1CCO[C@H](c2ccc(Br)cc2)C1)C1(c2ccc3c(c2)OC(F)(F)O3)CC1` [Example 21, N-[(2S,4S)-2-(4-bromophenyl)tetrahydro-2H-pyran-4-yl]-1-(2,2-difluoro-1,3-benzodioxol-5-yl)cyclopropanecarboxamide], the EC50 amounted to 7720 nM and the Maximum % activity came to 59%.

For the compound `COc1ccc([C@@H]2C[C@@H](NC(=O)C3(c4ccc5c(c4)OC(F)(F)O5)CC3)C[C@H](c3ccc(C(=O)O)cc3)O2)cc1` (racemic) [Example 56, rac-4-[(2R,4S,6S)-4-({[1-(2,2-difluoro-1,3-benzodioxol-5-yl)cyclopropyl]carbonyl}amino)-6-(4-methoxyphenyl)tetrahydro-2H-pyran-2-yl]benzoic acid], the EC50 was found to be 1900 nM and the Maximum % activity is listed as 89%.

Turning to `O=C(O)c1ccccc1[C@H]1C[C@@H](NC(=O)C2(c3ccc4c(c3)OC(F)(F)O4)CC2)CCO1` (racemic) [Example 12, rac-2-[(2R,4S)-4-({[1-(2,2-difluoro-1,3-benzodioxol-5-yl)cyclopropyl]carbonyl}amino)tetrahydro-2H-pyran-2-yl]benzoic acid], the EC50 worked out at 7630 nM and the Maximum % activity stood at 108%.

`O=C(O)c1cccc([C@@H]2C[C@H](NC(=O)C3(c4ccc5c(c4)OC(F)(F)O5)CC3)C[C@H](c3ccccc3)O2)c1` [Example 26, 3-[(2S,4R,6R)-4-({[1-(2,2-difluoro-1,3-benzodioxol-5-yl)cyclopropyl]carbonyl}amino)-6-phenyltetrahydro-2H-pyran-2-yl]benzoic acid]: the EC50 is not below 20000 nM and the Maximum % activity is 16%.

For the compound `COC(=O)c1cccc([C@@H]2C[C@H](NC(=O)C3(c4ccc5c(c4)OC(F)(F)O5)CC3)CCO2)c1` [Example 16, methyl 3-[(2S,4R)-4-({[1-(2,2-difluoro-1,3-benzodioxol-5-yl)cyclopropyl]carbonyl}amino)tetrahydro-2H-pyran-2-yl]benzoate], it took 2620 nM to reach a half-maximal effect (EC50) and the Maximum % activity was determined as 44%.

For the compound `CCOC(=O)c1cccc([C@H]2C[C@@H](NC(=O)C3(c4ccc5c(c4)OC(F)(F)O5)CC3)C[C@@H](c3cccc(OC)c3)O2)c1` (racemic) [Example 68, ethyl rac-3-[(2R,4R,6S)-4-({[1-(2,2-difluoro-1,3-benzodioxol-5-yl)cyclopropyl]carbonyl}amino)-6-(3-methoxyphenyl)tetrahydro-2H-pyran-2-yl]benzoate], the EC50 turned out to be 1040 nM and the Maximum % activity is 108%.

Consider `Cc1cc(C(=O)O)ccc1[C@H]1C[C@@H](NC(=O)C2(c3ccc4c(c3)OC(F)(F)O4)CC2)CCO1` (stereo in doubt) [Example 43, rel-4-[(2R,4S)-4-({[1-(2,2-difluoro-1,3-benzodioxol-5-yl)cyclopropyl]carbonyl}amino)tetrahydro-2H-pyran-2-yl]-3-methylbenzoic acid], for which the midpoint of the response, the EC50, lay at 320 nM and the Maximum % activity came to 119%.

As to `O=C(N[C@H]1CCO[C@@H](c2ccccc2)C1)C1(c2ccc3c(c2)OC(F)(F)O3)CC1` (racemic) [Example 1, rac-1-(2,2-difluoro-1,3-benzodioxol-5-yl)-N-[(2R,4S)-2-phenyltetrahydro-2H-pyran-4-yl]cyclopropanecarboxamide], the EC50 amounted to 1700 nM and the Maximum % activity turned out to be 62%.

Regarding `O=C(O)c1ccc(C2CC(NC(=O)C3(c4ccc5c(c4)OC(F)(F)O5)CC3)CC(C3CC3)O2)cc1` (centres unmarked) [Example 44, 4-[6-cyclopropyl-4-({[1-(2,2-difluoro-1,3-benzodioxol-5-yl)cyclopropyl]carbonyl}amino)tetrahydro-2H-pyran-2-yl]benzoic acid], the EC50 was 2580 nM and the Maximum % activity stood at 88%.

As for `O=C(N[C@@H]1CCO[C@H](c2ccc3c(c2)OCO3)C1)C1(c2ccc3c(c2)OC(F)(F)O3)CC1` [Example 15, N-[(2S,4R)-2-(1,3-benzodioxol-5-yl)tetrahydro-2H-pyran-4-yl]-1-(2,2-difluoro-1,3-benzodioxol-5-yl)cyclopropanecarboxamide], it took 6700 nM to reach a half-maximal effect (EC50) and the Maximum % activity was determined as 75%.

Take `CC(C)(O)c1cccc([C@H]2C[C@H](NC(=O)C3(c4ccc5c(c4)OC(F)(F)O5)CC3)CCO2)c1` (racemic) [Example 7, rac-1-(2,2-difluoro-1,3-benzodioxol-5-yl)-N-{(2R,4R)-2-[3-(2-hydroxypropan-2-yl)phenyl]tetrahydro-2H-pyran-4-yl}cyclopropanecarboxamide]: the EC50 was found to be 5560 nM and the Maximum % activity is 27%.

Turning to `COC(=O)c1cccc([C@H]2C[C@@H](NC(=O)C3(c4ccc5c(c4)OC(F)(F)O5)CC3)CCO2)c1` [Example 17, methyl 3-[(2R,4S)-4-({[1-(2,2-difluoro-1,3-benzodioxol-5-yl)cyclopropyl]carbonyl}amino)tetrahydro-2H-pyran-2-yl]benzoate], the EC50 turned out to be 1110 nM and the Maximum % activity was found to be 81%.

For `O=C(N[C@@H]1CCO[C@@H](c2ccc(Br)cc2)C1)C1(c2ccc3c(c2)OC(F)(F)O3)CC1` [Example 20, N-[(2R,4R)-2-(4-bromophenyl)tetrahydro-2H-pyran-4-yl]-1-(2,2-difluoro-1,3-benzodioxol-5-yl)cyclopropanecarboxamide], the response was half-maximal at 7300 nM (EC50) and the Maximum % activity came out at 45%.

On to `O=C(O)c1cccc([C@H]2C[C@H](NC(=O)C3(c4ccc5c(c4)OC(F)(F)O5)CC3)CCO2)c1` (racemic) [Example 5, rac-3-[(2R,4R)-4-({[1-(2,2-difluoro-1,3-benzodioxol-5-yl)cyclopropyl]carbonyl}amino)tetrahydro-2H-pyran-2-yl]benzoic acid], for which the EC50 is not below 20000 nM and the Maximum % activity is given as 13%.

For `O=C(N[C@H]1CCO[C@@H](c2cccc(CO)c2)C1)C1(c2ccc3c(c2)OC(F)(F)O3)CC1` (racemic) [Example 9, rac-1-(2,2-difluoro-1,3-benzodioxol-5-yl)-N-{(2R,4S)-2-[3-(hydroxymethyl)phenyl]tetrahydro-2H-pyran-4-yl}cyclopropanecarboxamide], the EC50 is 2260 nM and the Maximum % activity worked out at 61%.

Take `Cc1cc(C(=O)O)ccc1[C@H]1C[C@@H](NC(=O)C2(c3ccc4c(c3)OC(F)(F)O4)CC2)CCO1` (stereo in doubt) [Example 37, rac-4-[(2R,4S)-4-({[1-(2,2-difluoro-1,3-benzodioxol-5-yl)cyclopropyl]carbonyl}amino)tetrahydro-2H-pyran-2-yl]-3-methylbenzoic acid]: the concentration giving a half-maximal response (EC50) stood at 470 nM and the Maximum % activity was determined as 115%.

With `COC(=O)c1ccccc1[C@H]1C[C@@H](NC(=O)C2(c3ccc4c(c3)OC(F)(F)O4)CC2)CCO1` (racemic) [Example 11, methyl rac-2-[(2R,4S)-4-({[1-(2,2-difluoro-1,3-benzodioxol-5-yl)cyclopropyl]carbonyl}amino)tetrahydro-2H-pyran-2-yl]benzoate], the response was half-maximal at 900 nM (EC50) and the Maximum % activity is on record as 116%.

On to `COC(=O)c1ccc([C@@H]2C[C@H](NC(=O)C3(c4ccc5c(c4)OC(F)(F)O5)CC3)CCO2)c(C)c1` (single isomer, unassigned) [Example 40], for which the half-maximal effective concentration (EC50) came to 2100 nM and the Maximum % activity came out at 60%.

A word on the EC50: it is the concentration that produces a half-maximal response. A low value points to an effect from little substance.

The values are drawn from patent publication US9567322B2, “Substituted tetrahydropyrans and method of use” (AbbVie S.á.r.l., priority 2014, dated 2017).
